Drawing on patent US9999616B2 (ZENITH EPIGENETICS LTD., priority 2013, dated 2018), this text covers IC50 for 33 molecules.

pIC50: −log10 of the molar value.

This assay deals with Brd4 bromodomain 1 (BRD4(1)) (Homo sapiens, UniProt O60885). As to the kind of experiment: Inhibition of tetra-acetylated histone H4 binding to Brd4 bromodomain 1, measured by FRET (HTRF). Set-up: made in house; host or cells: E. coli BL21(DE3). Conditions: 2 h at room temperature. The procedure: Proteins were cloned and overexpressed with a N-terminal 6×His tag, then purified by nickel affinity followed by size exclusion chromatography. Briefly, E. coli BL21(DE3) cells were transformed with a recombinant expression vector encoding N-terminally Nickel affinity tagged bromodomains from Brd2, Brd3, Brd4. Cell cultures were incubated at 37° C. with shaking to the appropriate density and induced overnight with IPTG. The supernatant of lysed cells was loaded onto Ni-IDA column for purification. Eluted protein was pooled, concentrated and further purified by size exclusion chromatography. Fractions representing monomeric protein were pooled, concentrated, aliquoted, and frozen at −80° C. for use in subsequent experiments.
Binding of tetra-acetylated histone H4 and BET bromodomains was confirmed by a Homogenous Time Resolved Fluorescence Resonance Energy Transfer (HTRF®) method. N-terminally His-tagged bromodomains (200 nM) and biotinylated tetra-acetylated histone H4 peptide (25-50 nM, Millipore) were incubated in the presence of Europium Cryptate-labeled streptavidin (Cisbio Cat. #610SAKLB) and XL665-labeled monoclonal anti-His antibody (Cisbio Cat. #61HISXLB) in a white 96 well microtiter plate (Greiner). For inhibition assays, serially diluted test compound was added to these reactions in a 0.2% final concentration of DMSO. Duplicate wells were used for each concentration tested. Final buffer concentrations were 30 mM HEPES pH 7.4, 30 mM NaCl, 0.3 mM CHAPS, 20 mM phosphate pH 7.0, 320 mM KF, 0.08% BSA. After a 2 h incubation at room temperature, fluorescence was measured at 665 and 620 nm with a SynergyH4 plate reader (Biotek). The binding inhibitory activity was shown by a decrease in 665 nm relative to 620 nm fluorescence. IC50 values were determined from a dose response curve.
Turning to `Cc1ccc(-c2cc(-c3c(C)noc3C)cc3[nH]c(C)nc23)nn1` [Example Compound 86, 3,5-dimethyl-4-(2-methyl-4-(6-methyl-pyridazin-3-yl)-1H-benzo[d]imidazol-6-yl)isoxazole], the pIC50 was 5.52 to 6.52.

Turning to `Cc1nc2c(Nc3ncccc3C)cc(-c3c(C)noc3C)cc2[nH]1` [Example Compound 63, 6-(3,5-dimethyl-isoxazol-4-yl)-2-methyl-N-(3-methylpyridin-2-yl)-1H-benzo[d] imidazol-4-amine], the negative-log IC50 (pIC50) was 5.52 to 6.52.

`Cc1nc2c(-c3cccnc3N)cc(-c3c(C)noc3C)cc2[nH]1` [Example Compound 82, 3-(6-(3,5-dimethyl-isoxazol-4-yl)-2-methyl-1H-benzo[d]imidazol-4-yl)pyridin-2-amine]: the negative logarithm of the IC50 (pIC50) was 5.52 to 6.52. To `COc1ccccc1S(=O)(=O)Nc1cc(-c2c(C)noc2C)cc2[nH]cnc12` [Example Compound 102, N-(6-(3,5-dimethylisoxazol-4-yl)-1H-benzo[d]imidazol-4-yl)-2-methoxybenzenesulfonamide] belongs 5.52 to 6.52; to `Cc1nc2c(-c3ncsc3C)cc(-c3c(C)noc3C)cc2[nH]1` [Example Compound 113, 3,5-dimethyl-4-(2-methyl-4-(5-methyl-thiazol-4-yl)-1H-benzo[d]imidazol-6-yl)isoxazole], 5.52 to 6.52; to `Cc1nc2c(-c3cccc(OC(F)(F)F)c3)cc(-c3c(C)noc3C)cc2[nH]1` [Example Compound 96, 3,5-dimethyl-4-(2-methyl-4-(3-(trifluoro-methoxy)phenyl)-1H-benzo[d]imidazol-6-yl)isoxazole], not below 6.52. In the case of `CSc1nc2cc(-c3c(C)noc3C)cc(-c3c(C)nn(C)c3C)c2n1C` [Example Compound 191, 3,5-dimethyl-4-(1-methyl-2-(methylthio)-7-(1,3,5-trimethyl-1H-pyrazol-4-yl)-1H-benzo[d]imidazol-5-yl)isoxazole], the pIC50 was not below 6.52. To `Cc1noc(C)c1-c1cc(-c2c(C)noc2C)c2ncnn2c1` [Example Compound 17, 4,4′-([1,2,4]triazolo [1,5-a]pyridine-6,8-diyl)bis (3,5-dimethyl-isoxazole)] belongs 4.52 to 5.52. To `Cc1nc2c(-c3cc(C(=O)O)ccc3C)cc(-c3c(C)noc3C)cc2[nH]1` [Example Compound 75, 3-(6-(3,5-dimethyl-isoxazol-4-yl)-2-methyl-1H-benzo[d]imidazol-4-yl)-4-methyl benzoic acid] belongs 5.52 to 6.52. To `Cc1nc2c(-c3ccccc3C(F)(F)F)cc(-c3c(C)noc3C)cc2[nH]1` [Example Compound 78, 3,5-dimethyl-4-(2-methyl-4-(2-(trifluoromethyl)phenyl)-1H-benzo[d]imidazol-6-yl)isoxazole] belongs 5.52 to 6.52; to `Cc1noc(C)c1-c1cn2ccnc2c(-c2c(C)noc2C)n1` [Example Compound 10, 4,4′-(imidazo [1,2-a]pyrazine-6,8-diyl)bis(3,5-dimethylisoxazole)], 4.52 to 5.52. Consider `Cc1nc2c(-c3c(C)noc3C)cc(-c3c(C)noc3C)nc2[nH]1` [Example Compound 176, 4,4′-(2-methyl-3H-imidazo[4,5-b]pyridine-5,7-diyl)bis(3,5-dimethylisoxazole)], for which the pIC50 is 5.52 to 6.52. To `Cc1noc(C)c1-c1cc(Nc2cnccn2)c2nc[nH]c2c1` [Example Compound 62, 6-(3,5 dimethyl-isoxazol-4-yl)-N-(pyrazin-2-yl)-1H-benzo[d] imidazol-4-amine] belongs 5.52 to 6.52; to `Cc1nc2c(-c3cccc(F)c3C#N)cc(-c3c(C)noc3C)cc2[nH]1` [Example Compound 83, 2-(6-(3,5-dimethyl-isoxazol-4-yl)-2-methyl-1H-benzo[d]imidazol-4-yl)-6-fluoro-benzonitrile], 5.52 to 6.52.

In the case of `Cc1ccc(C(N)=O)cc1-c1cc(-c2c(C)noc2C)cc2[nH]c(NCc3ccccc3)nc12` [Example Compound 220, 3-(2-(benzyl-amino)-6-(3,5-dimethylisoxazol-4-yl)-1H-benzo[d]imidazol-4-yl)-4-methyl-benzamide], the pIC50 is not below 6.52.

Regarding `Cc1nc2c(-c3c(C)cnn3C)cc(-c3c(C)cnn3C)cc2[nH]1` [Example Compound 167, 4,6-bis(1,4-dimethyl-1H-pyrazol-5-yl)-2-methyl-1H-benzo[d] imidazole], the pIC50 is 5.52 to 6.52. To `Cc1nc2c(-c3sc(C)nc3C)cc(-c3sc(C)nc3C)cc2[nH]1` [Example Compound 168, 5,5′-(2-methyl-1H-benzo[d]imidazole-4,6-diyl) bis(2,4-dimethylthiazole)] belongs 4.52 to 5.52; to `Cc1noc(C)c1-c1cc(-c2c(C)noc2C)c2nccnc2c1` [Example Compound 159, 4,4′-(quinoxaline-5,7-diyl)bis(3,5-dimethylisoxazole)], 5.52 to 6.52.

Regarding `Cc1noc(C)c1-c1cc(-c2c(C)noc2C)c2nc(NCc3cccnc3)[nH]c2c1` [Example Compound 65, 4,6-bis(3,5-dimethyl-isoxazol-4-yl)-N-(pyridin-3-ylmethyl)-1H-benzo[d] imidazol-2-amine], the pIC50 was not below 6.52. To `Cc1noc(C)c1-c1cc(-c2c(C)noc2C)c2n[nH]c(=O)n2c1` [Example Compound 149, 6,8-bis(3,5-dimethyl-isoxazol-4-yl)-[1,2,4] triazolo[4,3-a] pyridin-3(2H)-one] belongs 4.52 to 5.52; to `Cc1noc(C)c1-c1nc(-c2c(C)noc2C)c2ccccc2n1` [Example Compound 3, 4,4′-(quinazoline-2,4-diyl)bis (3,5-dimethyl isoxazole)], 4.52 to 5.52.

Consider `Cc1noc(C)c1-c1cc(-c2c(C)noc2C)c2nc(N(C)C)[nH]c2c1` [Example Compound 116, 4,6-bis(3,5-dimethyl-isoxazol-4-yl)-N,N-dimethyl-1H-benzo[d] imidazol-2-amine], for which the pIC50 was 5.52 to 6.52.

As for `Cc1nc2c(-c3ccc(Cl)cc3C)cc(-c3c(C)noc3C)cc2[nH]1` [Example Compound 90, 4-(4-(4-chloro-2-methyl-phenyl)-2-methyl-1H-benzo[d]imidazol-6-yl)-3,5-dimethyl isoxazole], the pIC50 was 5.52 to 6.52.

Regarding `Cc1nc2c(-c3cn(C)nc3C(F)(F)F)cc(-c3c(C)noc3C)cc2[nH]1` [Example Compound 115, 3,5-dimethyl-4-(2-methyl-4-(1-methyl-3-(trifluoro-methyl)-1H-pyrazol-4-yl)-1H-benzo[d]imidazol-6-yl)isoxazole], the negative logarithm of the IC50 (pIC50) was 5.52 to 6.52.

In the case of `Cc1nc2c(-c3cccc4cccnc34)cc(-c3c(C)noc3C)cc2[nH]1` [Example Compound 111, 3,5-dimethyl-4-(2-methyl-4-(quinolin-8-yl)-1H-benzo[d]imidazol-6-yl)isoxazole], the pIC50 was 5.52 to 6.52. Turning to `Cc1ccc(C#N)cc1-c1cc(-c2c(C)noc2C)cc2[nH]c(N3CCOCC3)nc12` [Example Compound 193, 3-(6-(3,5-dimethyl-isoxazol-4-yl)-2-morpholino-1H-benzo[d]imidazol-4-yl)-4-methyl benzonitrile], the pIC50 is not below 6.52. With `Cc1ccc(C(=O)N2CCCC2)cc1-c1cc(-c2c(C)noc2C)cc2[nH]c(N3CCCC3)nc12` [Example Compound 218, (3-(6-(3,5-dimethylisoxazol-4-yl)-2-(pyrrolidin-1-yl)-1H-benzo[d]imidazol-4-yl)-4-methylphenyl)(pyrrolidin-1-yl)methanone], the pIC50 is not below 6.52.

Regarding `Cc1nc2c(-c3ccnn3C)cc(-c3ccnn3C)cc2[nH]1` [Example Compound 134, 2-methyl-4,6-bis(1-methyl-1H-pyrazol-5-yl)-1H-benzo[d] imidazole], the pIC50 was 5.52 to 6.52. For the molecule `Cc1ccc(C(N)=O)cc1-c1cc(-c2c(C)noc2C)cc2[nH]c(NCc3cccnc3)nc12` [Example Compound 219, 3-(6-(3,5-dimethyl-isoxazol-4-yl)-2-((pyridin-3-ylmethyl)amino)-1H-benzo[d]imidazol-4-yl)-4-methyl-benzamide], the negative-log IC50 (pIC50) is not below 6.52.

For `Cc1nc2c(N3CCCCC3=O)cc(-c3c(C)noc3C)cc2[nH]1` [Example Compound 122, 1-(6-(3,5-dimethylisoxazol-4-yl)-2-methyl-1H-benzo[d]imidazol-4-yl)piperidin-2-one], the negative logarithm of the IC50 (pIC50) is 5.52 to 6.52.

As for `Cc1noc(C)c1-c1cc(-c2c(C)nn(C)c2C)c2nc(NCc3cccnc3)[nH]c2c1` [Example Compound 221, 6-(3,5-dimethyl-isoxazol-4-yl)-N-(pyridin-3-ylmethyl)-4-(1,3,5-trimethyl-1H-pyrazol-4-yl)-1H-benzo[d] imidazol-2-amine], the pIC50 was not below 6.52.

`Cc1nc2c(-c3cn(C)nc3C)cc(-c3cn(C)nc3C)cc2[nH]1` [Example Compound 133, 4,6-bis(1,3-dimethyl-1H-pyrazol-4-yl)-2-methyl-1H-benzo[d] imidazole]: the pIC50 was 4.52 to 5.52. For the molecule `Cc1noc(C)c1-c1cc(-c2c(C)nn(C)c2C)c2nc(N3CCC3)[nH]c2c1` [Example Compound 217], the pIC50 is not below 6.52.
